Patent publication US20230382940A1, “ANTIVIRAL COMPOUNDS AND METHODS OF MAKING AND USING THE SAME” (Gilead Sciences, Inc., priority 2022, published 2023)
Where two headings read alike, the source gives them in different places.

Columns and labels:
[1] = system: Human Rhinovirus 14 (HRV14); test: H1-HeLa HRV-CTG 384-well assay, HRV14, Example X; format: cell-based; conditions: Rhinovirus B, 96 h, read-out: EC50 H1-HeLa_HRV 14_HRV-CTG 384-well Assay (per Ex. X)
From the text: (§1) Example X: H1-HeLa HRV-CTG 384-Well Assay
(§2) H1-Hela cell line (ATCC, Manassas, VA, Cat #CRL-1958) was maintained in Dulbecco's […] (DMEM) (Corning, New York, NY, Cat #15-018CM) supplemented with 10% fetal bovine serum (FBS) (Hyclone, Logan, UT, Cat #SH30071-03), and 1× Penicillin-Streptomycin-L-Glutamine (Corning, New York, NY, Cat #30-009-CI). Cells were passaged 2 times per week to maintain sub-confluent densities and were used for experiments at passage 5-30. The Human Rhinovirus 1B (HRV1B) (ATCC, Manassas, VA, Cat #VR-1645), Human Rhinovirus 14 (HRV14) (ATCC, Manassas, VA, Cat #VR-284), and Human Rhinovirus 16 (HRV16) (ATCC, Manassas, VA, Cat #BR-283) was obtained through ATCC. Viral infection was monitored by determining viability of H1-HeLa cells as described below.
(§3) Test molecules are prepared in 100% DMSO in 384-well polypropylene plates (Greiner, Monroe, NC, Cat #784201) with 8 compounds per plate in grouped replicates of 4 at 10 serially diluted concentrations (1:3). The serially diluted compounds were transferred to low dead volume Echo plates (Labcyte, Sunnyvale, CA, Cat #LP-0200).
(§4) The test compounds were spotted to 384-well assay plates (Greiner, Monroe, NC, Cat #781091) at 200 nL per well using an Echo acoustic dispenser (Labcyte, Sunnyvale, CA). H1-HeLa cells were harvested and suspended in DMEM (supplemented with 2% FBS and 1× Penicillin-Streptomycin-L-Glutamine) and seeded to the pre-spotted assay plates at 5,000 cells per well in 30 μL. HRV1B, HRV14, and HRV16 was diluted in DMEM (supplemented with 2% FBS and 1× Penicillin-Streptomycin-L-Glutamine) at 97.1 million Infectious Units (IU) per mL, 151 million IU per mL and 221 million IU per mL respectively. 10 μL of virus per well was added to the assay plates containing cells and compounds, for an MOI of 0.5, 1.0, and 0.25 respectively. The assay plates were incubated for 4 days at 37° C. and 5% CO2. At the end of incubation, Celltiter-Glo (Promega, Madison, WI, Cat #G7573) was prepared. The assay plates and Celltiter-Glo reagent were equilibrated to room temperature for at least 15 minutes. 40 μL per well of Celltiter-Glo reagent was added and the plates were incubated at room temperature for 15 minutes before reading the luminescence signal on an EnVision multimode plate reader (Perkin Elmer, Waltham, MA). Rupintrivir was used as positive control and DMSO was used as negative control. Values were normalized to the positive and negative controls (as 0% and 100% replication, respectively) and data was fitted using non-linear regression analysis by Gilead's dose response tool. The EC50 value for each compound was defined as the concentration reducing viral replication by 50%.

[2] = system: Human Rhinovirus 1B (HRV1B); test: H1-HeLa HRV-CTG 384-well assay, HRV1B, Example X; format: cell-based; conditions: Rhinovirus A, 96 h, read-out: EC50 H1-HeLa_HRV 1B_HRV-CTG 384-well Assay (per Ex. X)
From the text: as §1, §2, §3, §4

[3] = GI S9 stability, rat, Example Y; format: in vitro ADME; conditions: pooled intestinal S9 fractions; rat intestinal S9, 1.0 mg/mL protein, 2 μM compound, pH 7.4; read-out: GIS9 Rat T½ (per Ex. Y)
Description: (§5) Example Y: GI S9 Stability Data
(§6) Stock solutions of test compounds in dimethyl sulfoxide (DMSO) having a final concentration of 10 mM were prepared and used in all experiments. Sekisui XenoTech (Kansas City, KS) provided pooled intestinal S9 fractions. All other chemicals were purchased from Sigma-Aldrich (St. Louis, MO) or VWR (West Chester, PA). Internal Standard/Quench (IS/Q) used to stop reactions was 100 nM labetalol in (by volume) methanol (10%) and acetonitrile (90%).
(§7) Stability in Intestinal S9 Fractions: Duplicate aliquots of test compound or positive control substrate were added to S9 stock diluted with phosphate buffered saline (137 mM NaCl, 2.7 mM KCl, 10 mM phosphate buffer), pH 7.4, to obtain a protein concentration of 1.0 mg/mL. The metabolic reactions were initiated by the addition of the substrates to the S9 reaction mixture to a final concentration of 2 μM. At 0, 10, 20, 30, 60 and 120 min, 25 μL aliquots of the reaction mixture were transferred to plates containing 225 μl of IS/Q solution. After quenching, the plates were centrifuged at 3000×g for 30 minutes. 150 μL aliquots of each supernatant were dried down then reconstituted with 300 μL water. Aliquots (10 μL) of the prepared samples were analyzed on a Thermo Q-Exactive mass spectrometer as described below.
(§8) Liquid Chromatography—Mass Spectrometry: Quantification of test compounds and control substrate was performed by analyte/internal standard peak area ratio (PAR) values measured on a Thermo Q-Exactive mass spectrometer coupled to a Dionex UltiMate 3000 HPLC with a Leap Technologies HTC PAL autosampler. The column used for analysis was a Waters Acquity BEH C18 (1.7 μm particle size, 2.1×50 mm). Mobile phase A consisted of 0.1% (v/v) formic acid in water. Mobile phase B consisted of 0.1% (v/v) formic acid in acetonitrile. Elution of analytes was achieved by a series of linear gradients varying the proportions of A and B. The mass spectrometer was calibrated on a weekly basis and mass tolerance of 5 ppm was used.
(§9) Metabolic stabilities in S9 fractions were determined by measuring the rates of disappearance of test compound and positive control substrate.
(§10) Data (% of substrate remaining) were plotted on a semi-log scale and fitted using an exponential decline model:
(§11) Ct=C0×e^−ln2/T1/2×t • Where Ct—% of substrate remaining at time=t; C0—% of substrate remaining at time=0; t—time; T1/2—half-life. • The Half-life (T1/2) is determined by the following equation: […]
(§12) Assuming a first-order reaction, the slope (k) is extrapolated from the aforementioned plotted data.

[4] = system: Human Rhinovirus 16 (HRV16); test: H1-HeLa HRV-CTG 384-well assay, HRV16, Example X; format: cell-based; conditions: Rhinovirus A, 96 h, read-out: EC50 H1-HeLa_HRV 16_HRV-CTG 384-well Assay (per Ex. X)
From the text: as §1, §2, §3, §4

[5] = GI S9 stability, human, Example Y; format: in vitro ADME; conditions: pooled intestinal S9 fractions; human intestinal S9, 1.0 mg/mL protein, 2 μM compound, pH 7.4; read-out: GIS9 Human T½ (per Ex. Y)
Description: as §5, §6, §7, §8, §9, §10, §11, §12

[6] = H1-HeLa cells, HRV14 MOI 1.0, 4 days, Celltiter-Glo
[7] = H1-HeLa cells, HRV1B MOI 0.5, 4 days, Celltiter-Glo
[8] = H1-HeLa cells, HRV16 MOI 0.25, 4 days, Celltiter-Glo

Compound | EC50 [1, 6] [µM] | EC50 [2, 7] [µM] | half-life at 2 μM [3] [min] | EC50 [4, 8] [µM] | half-life at 2 μM [5] [min] | EC50 ([1]; HRV14, H1-HeLa) [µM] | EC50 ([2]; HRV1B, H1-HeLa) [µM] | EC50 ([4]; HRV16, H1-HeLa) [µM]
CC(C)OC(=O)OC[C@@]1(C#N)O[C@@H](c2ccc3c(N)ncnn23)[C@H](O)[C@@H]1O [Compound 11, ((2R,3S,4R,5S)-5-(4-aminopyrrolo[2,1-f][1,2,4]triazin-7-yl)-2-cyano-3,4-dihydroxytetrahydrofuran-2-yl)methyl isopropyl carbonate] | 31.1 | 12.2 | 14 | 37.4 | 104 | – | – | –
N#C[C@]1(COC(=O)OC2CCOCC2)O[C@@H](c2ccc3c(N)ncnn23)[C@H](O)[C@@H]1O [Compound 12, ((2R,3S,4R,5S)-5-(4-aminopyrrolo[2,1-f][1,2,4]triazin-7-yl)-2-cyano-3,4-dihydroxytetrahydrofuran-2-yl)methyl (tetrahydro-2H-pyran-4-yl) carbonate] | 27.2 | 10 | 58 | 30.3 | 789 | – | – | –
CC(C)(C)OC(=O)OC[C@@]1(C#N)O[C@@H](c2ccc3c(N)ncnn23)[C@H](O)[C@@H]1O [Compound 13, ((2R,3S,4R,5S)-5-(4-aminopyrrolo[2,1-f][1,2,4]triazin-7-yl)-2-cyano-3,4-dihydroxytetrahydrofuran-2-yl)methyl tert-butyl carbonate] | – | – | 74 | – | 97 | 4.67 | 3.19 | 7.67
CCC(CC)OC(=O)OC[C@@]1(C#N)O[C@@H](c2ccc3c(N)ncnn23)[C@H](O)[C@@H]1O [Compound 14, ((2R,3S,4R,5S)-5-(4-aminopyrrolo[2,1-f][1,2,4]triazin-7-yl)-2-cyano-3,4-dihydroxytetrahydrofuran-2-yl)methyl pentan-3-yl carbonate] | 44.5 | 22.9 | 16 | 50 | 104 | – | – | –
CC(C)COC(=O)OC[C@@]1(C#N)O[C@@H](c2ccc3c(N)ncnn23)[C@@H]2OC(=O)O[C@@H]21 [Compound 15, ((3aS,4R,6S,6aS)-6-(4-aminopyrrolo[2,1-f][1,2,4]triazin-7-yl)-4-cyano-2-oxotetrahydrofuro[3,4-d][1,3]dioxol-4-yl)methyl isobutyl carbonate] | 7.55 | 7.05 | 2 | 9.15 | 1 | – | – | –
CC(C)COC(=O)Nc1ncnn2c([C@@H]3O[C@](C#N)(CO)[C@@H](O)[C@H]3O)ccc12 [Compound 16, Isobutyl (7-((2S,3R,4S,5R)-5-cyano-3,4-dihydroxy-5-(hydroxymethyl)tetrahydrofuran-2-yl)pyrrolo[2,1-f][1,2,4]triazin-4-yl)carbamate] | 50 | 50 | 789 | 50 | 789 | – | – | –
N#C[C@]1(COC(=O)OC2CCC2)O[C@@H](c2ccc3c(N)ncnn23)[C@H](O)[C@@H]1O [Compound 17, ((2R,3S,4R,5S)-5-(4-aminopyrrolo[2,1-f][1,2,4]triazin-7-yl)-2-cyano-3,4-dihydroxytetrahydrofuran-2-yl)methyl cyclobutyl carbonate] | 18.4 | 6.08 | 7 | 15.1 | 29 | – | – | –
CCCCCCOC(=O)OC[C@@]1(C#N)O[C@@H](c2ccc3c(N)ncnn23)[C@H](O)[C@@H]1O [Compound 19, ((2R,3S,4R,5S)-5-(4-aminopyrrolo[2,1-f][1,2,4]triazin-7-yl)-2-cyano-3,4-dihydroxytetrahydrofuran-2-yl)methyl hexyl carbonate] | 7 | 3.57 | 2 | 8.39 | 11 | – | – | –
CCCCCOC(=O)OC[C@@]1(C#N)O[C@@H](c2ccc3c(N)ncnn23)[C@H](O)[C@@H]1O [Compound 20, ((2R,3S,4R,5S)-5-(4-aminopyrrolo[2,1-f][1,2,4]triazin-7-yl)-2-cyano-3,4-dihydroxytetrahydrofuran-2-yl)methyl pentyl carbonate] | 12.3 | 4.69 | 3 | 9.58 | 16 | – | – | –
N#C[C@]1(COC(=O)OC2CCCCC2)O[C@@H](c2ccc3c(N)ncnn23)[C@H](O)[C@@H]1O [Compound 21, ((2R,3S,4R,5S)-5-(4-aminopyrrolo[2,1-f][1,2,4]triazin-7-yl)-2-cyano-3,4-dihydroxytetrahydrofuran-2-yl)methyl cyclohexyl carbonate] | 23.5 | 7.87 | 8 | 26.7 | 44 | – | – | –
CCOC(=O)OC[C@@]1(C#N)O[C@@H](c2ccc3c(N)ncnn23)[C@H](O)[C@@H]1O [Compound 22, ((2R,3S,4R,5S)-5-(4-aminopyrrolo[2,1-f][1,2,4]triazin-7-yl)-2-cyano-3,4-dihydroxytetrahydrofuran-2-yl)methyl ethyl carbonate] | 19.9 | 9.8 | 14 | 26.3 | 55 | – | – | –
